Source: patent publication US9545120B2, “Method of lowering glycemic index of foods” (BASF SE, priority 2002, dated 2017)
Like-named read-outs stand apart in the source and are kept apart here.

Legend:
[1] = molecular target: T1, Alpha-glucosidase Type 1 from bakers yeast (Saccharomyces cerevisiae, UniProt P53341); assay: Alpha-glucosidase assay; format: biochemical; settings: for remaining activity at 15.6 µg/mL / remaining activity at 7.8 µg/mL / remaining activity at 31.3 µg/mL / remaining activity at 62.5 µg/mL / remaining activity at 125 µg/mL / remaining activity at 250 µg/mL / remaining activity at 500 µg/mL: read-out: alpha-glucosidase % control; for inhibition at 15.6 µg/mL / inhibition at 7.8 µg/mL / inhibition at 31.3 µg/mL / inhibition at 62.5 µg/mL / inhibition at 125 µg/mL / inhibition at 250 µg/mL / inhibition at 500 µg/mL: read-out: alpha-glucosidase % inhibition; for inhibition at 1600 µM: read-out: % inhibition of alpha-glucosidase at flavonoid concentration 1.6 mM (454 μg/mL)
T1 construct: purchased Sigma
Procedure: Alpha-glucosidase Type 1 from bakers yeast, substrate (p-nitrophenyl-alpha-D-glucopyranoside) and a control inhibitor, castanospermine were purchased from Sigma. For the assay, enzyme dissolved in 50 mM acetate buffer, pH 4.5 was incubated for 30 min, at 37° C. in the presence of substrate and in the presence vs. absence of inhibitors (flavonoids or castanospermine at various concentrations). The reaction was carried out in 50 mM acetate buffer, pH 4.5. Final concentration of alpha glucosidase was 0.2 U/ml; final concentration of the substrate was 2 mM. Flavonoids concentrations ranged from 7.8 to 500 μg/ml and castanospermine was used at final concentration 1 μg/ml. The reaction was stopped by addition of 0.2 M Na2CO3 and absorbance was measured at 405 nm. Background absorbance (without enzyme) was subtracted for every flavonoid concentration used. The inhibitory activity was expressed as 100 minus relative absorbance difference between tested samples and controls.

[2] = molecular target: T2, Alpha-amylase from porcine pancreas (Sus scrofa, UniProt P00690); assay: Alpha-amylase assay; format: biochemical; settings: for remaining activity at 11.7 µg/mL / remaining activity at 23.4 µg/mL / remaining activity at 46.9 µg/mL / remaining activity at 93.8 µg/mL / remaining activity at 187.5 µg/mL / remaining activity at 375 µg/mL / remaining activity at 750 µg/mL: read-out: alpha-amylase % control; for inhibition at 11.7 µg/mL / inhibition at 23.4 µg/mL / inhibition at 46.9 µg/mL / inhibition at 93.8 µg/mL / inhibition at 187.5 µg/mL / inhibition at 375 µg/mL / inhibition at 750 µg/mL: read-out: alpha-amylase % inhibition; for inhibition at 1600 µM: read-out: % inhibition of alpha-amylase at flavonoid concentration 1.6 mM (454 μg/mL)
T2 construct: purchased Sigma; host or cells: porcine pancreas
T2 sequence (P00690 16-511): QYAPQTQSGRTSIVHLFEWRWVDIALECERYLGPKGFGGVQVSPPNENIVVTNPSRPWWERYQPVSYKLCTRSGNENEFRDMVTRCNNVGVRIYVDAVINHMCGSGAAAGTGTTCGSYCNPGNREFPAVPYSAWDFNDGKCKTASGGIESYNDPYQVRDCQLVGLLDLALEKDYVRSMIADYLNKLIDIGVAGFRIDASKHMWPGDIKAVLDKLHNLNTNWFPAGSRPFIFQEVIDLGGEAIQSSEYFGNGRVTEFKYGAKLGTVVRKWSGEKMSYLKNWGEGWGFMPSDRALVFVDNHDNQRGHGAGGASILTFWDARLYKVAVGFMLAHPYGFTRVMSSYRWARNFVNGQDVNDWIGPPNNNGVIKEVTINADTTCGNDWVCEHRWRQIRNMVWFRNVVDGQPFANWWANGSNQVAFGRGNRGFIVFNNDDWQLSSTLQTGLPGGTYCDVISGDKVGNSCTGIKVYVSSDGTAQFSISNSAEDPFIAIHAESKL
Procedure: Alpha-amylase from porcine pancreas, alpha-glucosidase, glucoamylase and substrate (p-nitrophenyl-alpha-maltopentaoside) were purchased from Sigma. In the reaction, alpha-amylase (endo-type enzyme) hydrolysed the substrate into shorter chain glucosides and the auxiliary enzymes (exo-type enzymes) released the chromophore (p-nitrophenol) from the amylase-hydrolyzed malto-polysaccharides. For the assay, alpha-amylase (7.5 U/ml) was added to a substrate solution containing 1 mM p-nitrophenyl-alpha-maltopentaoside, 15 U/ml of alpha-glucosidase and 25 U/ml of glucoamylase in 50 mM HEPES buffer (pH 7.3) containing 3 mM CaCl2 and 40 mM NaCl. The reaction was carried out for 15 min at 37° C. in the presence vs. absence of flavonoids at concentrations ranged from 11.7 to 750 μg/ml. At the end of the incubation, 0.2 M borate, pH 9.8 was added to inactivate the enzymes and liberated p-nitrophenol was measured spectrophotometrically at 405 nm. The relative activity of alpha-amylase was calculated by subtracting reaction blanks containing the substrate, the two axillary enzymes and flavonoids at the same concentrations. The inhibitory activity was expressed as 100 minus relative absorbance difference between tested samples and controls.

T1 sequence (P53341 whole entry): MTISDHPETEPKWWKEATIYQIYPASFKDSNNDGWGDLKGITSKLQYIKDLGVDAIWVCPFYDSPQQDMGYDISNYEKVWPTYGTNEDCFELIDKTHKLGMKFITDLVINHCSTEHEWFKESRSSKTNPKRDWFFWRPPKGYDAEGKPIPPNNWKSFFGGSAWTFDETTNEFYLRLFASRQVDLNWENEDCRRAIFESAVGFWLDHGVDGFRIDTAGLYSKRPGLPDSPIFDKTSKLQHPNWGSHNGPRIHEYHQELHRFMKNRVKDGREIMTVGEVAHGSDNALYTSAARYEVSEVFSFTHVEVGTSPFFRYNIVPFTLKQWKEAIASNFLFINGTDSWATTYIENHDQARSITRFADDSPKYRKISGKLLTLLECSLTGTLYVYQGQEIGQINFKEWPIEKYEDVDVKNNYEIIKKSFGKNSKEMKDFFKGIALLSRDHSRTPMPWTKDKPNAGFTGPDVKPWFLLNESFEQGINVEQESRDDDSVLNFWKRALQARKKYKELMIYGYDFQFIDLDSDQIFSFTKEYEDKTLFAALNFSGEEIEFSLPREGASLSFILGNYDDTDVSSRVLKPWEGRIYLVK

SMILES	IC50 [1] [µM]	remaining activity at 15.6 µg/mL ([1]; flavonoid conc. 15.6 μg/mL) [%]	inhibition at 15.6 µg/mL ([1]; flavonoid conc. 15.6 μg/mL) [%]	inhibition at 1600 µM [1] [%]	remaining activity at 7.8 µg/mL [1] [%]	remaining activity at 31.3 µg/mL [1] [%]	remaining activity at 62.5 µg/mL [1] [%]	remaining activity at 125 µg/mL [1] [%]	remaining activity at 250 µg/mL [1] [%]	remaining activity at 500 µg/mL [1] [%]	inhibition at 7.8 µg/mL [1] [%]	inhibition at 31.3 µg/mL [1] [%]	inhibition at 62.5 µg/mL [1] [%]	inhibition at 125 µg/mL [1] [%]	inhibition at 250 µg/mL [1] [%]	inhibition at 500 µg/mL [1] [%]	remaining activity at 11.7 µg/mL ([2]; flavonoid conc. 11.7 μg/ml) [%]	inhibition at 11.7 µg/mL ([2]; flavonoid conc. 11.7 μg/ml) [%]	remaining activity at 23.4 µg/mL ([2]; flavonoid conc. 23.4 μg/ml) [%]	inhibition at 1600 µM [2] [%]	further results
O=c1cc(-c2ccc(O)cc2)oc2cc(O)cc(O)c12 [Apigenin, apigenin]	220	74.3	25.7	100	73.5	68.4	50.4	29.5	0	0	26.5	31.6	49.6	70.5	100	100	81	19	0	100	inhibition at 23.4 µg/mL ([2]; flavonoid conc. 23.4 μg/ml): 100%; remaining activity at 46.9 µg/mL ([2]; flavonoid conc. 46.9 μg/ml): 0%; inhibition at 46.9 µg/mL ([2]; flavonoid conc. 46.9 μg/ml): 100%; remaining activity at 93.8 µg/mL ([2]; flavonoid conc. 93.8 μg/ml): 0%; inhibition at 93.8 µg/mL ([2]; flavonoid conc. 93.8 μg/ml): 100%; remaining activity at 187.5 µg/mL ([2]; flavonoid conc. 187.5 μg/ml): 0%; inhibition at 187.5 µg/mL ([2]; flavonoid conc. 187.5 μg/ml): 100%; remaining activity at 375 µg/mL ([2]; flavonoid conc. 375.0 μg/ml): 0%; inhibition at 375 µg/mL ([2]; flavonoid conc. 375.0 μg/ml): 100%; remaining activity at 750 µg/mL ([2]; flavonoid conc. 750.0 μg/ml): 0%; inhibition at 750 µg/mL ([2]; flavonoid conc. 750.0 μg/ml): 100%
O=c1cc(-c2ccc(O)c(O)c2)oc2cc(O)cc(O)c12 [Luteolin, luteolin]		60.2	39.8	96	81.4	65.8	45.7	17.9	19.1	0	18.6	34.2	54.3	82.1	80.9	100	0	100	0	100	IC50 ([1]; read-out: IC50 concentration, alpha-glucosidase (converted)): 180 µM; inhibition at 23.4 µg/mL ([2]; flavonoid conc. 23.4 μg/ml): 100%; remaining activity at 46.9 µg/mL ([2]; flavonoid conc. 46.9 μg/ml): 0%; inhibition at 46.9 µg/mL ([2]; flavonoid conc. 46.9 μg/ml): 100%; remaining activity at 93.8 µg/mL ([2]; flavonoid conc. 93.8 μg/ml): 0%; inhibition at 93.8 µg/mL ([2]; flavonoid conc. 93.8 μg/ml): 100%; remaining activity at 187.5 µg/mL ([2]; flavonoid conc. 187.5 μg/ml): 0%; inhibition at 187.5 µg/mL ([2]; flavonoid conc. 187.5 μg/ml): 100%; remaining activity at 375 µg/mL ([2]; flavonoid conc. 375.0 μg/ml): 0%; inhibition at 375 µg/mL ([2]; flavonoid conc. 375.0 μg/ml): 100%; remaining activity at 750 µg/mL ([2]; flavonoid conc. 750.0 μg/ml): 0%; inhibition at 750 µg/mL ([2]; flavonoid conc. 750.0 μg/ml): 100%; inhibition of alpha-amylase at the lowest concentration tested ([2]; lowest concentration tested (11.7 μg/ml)): inhibiting the enzyme completely; IC50 ([2]; read-out: IC50 concentration, alpha-amylase (converted)): 20.3 µM
COc1cc(-c2cc(=O)c3c(O)cc(O)cc3o2)cc(OC)c1O [Tricin, tricin]	36.3			100	97.7	15.6	6.4	0	0	0	0.3	84.4	93.6	100	100	100				100	remaining activity at 15.6 µg/mL [1]: 26.4%; inhibition at 15.6 µg/mL [1]: 73.6%; IC50 [2]: 30 µM; remaining activity at 11.7 µg/mL [2]: 40.9%; remaining activity at 23.4 µg/mL [2]: 18.2%; remaining activity at 46.9 µg/mL [2]: 0%; remaining activity at 93.8 µg/mL [2]: 0%; remaining activity at 187.5 µg/mL [2]: 0%; remaining activity at 375 µg/mL [2]: 0%; remaining activity at 750 µg/mL [2]: 0%; inhibition at 11.7 µg/mL [2]: 59.1%; inhibition at 23.4 µg/mL [2]: 81.8%; inhibition at 46.9 µg/mL [2]: 100%; inhibition at 93.8 µg/mL [2]: 100%; inhibition at 187.5 µg/mL [2]: 100%; inhibition at 375 µg/mL [2]: 100%; inhibition at 750 µg/mL [2]: 100%
O[C@H]1[C@H](O)[C@@H](O)CN2CC[C@H](O)[C@H]12 [castanospermine, reference compound]																					activity of alpha-glucosidase reduced by ([1]; 1 μg/ml, control inhibitor): 32%
